Columns and labels:
[1] = system: T18 murine breast cancer cells; test: Test (b): growth inhibition of T18 cells in culture under oxic conditions (MTT endpoint); assay type: cell-based; conditions: Mus musculus, 2 hours treatment, 90% air and 10% CO2, grown on for 6 days
Description: (b) An in vitro assay which determines the ability of a test compound to inhibit the growth of T18 murine breast cancer cells in cell culture under oxic conditions. The cells were grown in monolayer in 96 well plates and treated with compounds for 2 hours under an atmosphere of 90% air and 10% CO2. The cells were then grown on for 6 days at which time the extent of proliferation was assessed using a 3-(4,5-dimethylthiazol-2-yl)-2,5-diphenyltetrazolium bromide (MTT) endpoint. The test is similar to that described in J. Immunological Methods, 1983, 65, 55-63. The detailed methodology was as follows.
T18 murine breast tumour cells (derived from a spontaneous mammary tumour in the Balb/c mouse colony at Zeneca Pharmaceuticals, Mereside, Macclesfield, UK) were harvested from an exponentially growing monolayer culture. The cells were counted, diluted in RPMI 1640 culture medium (Gibco BRL, Life Technologies, Paisley, UK; supplemented with 15% foetal calf serum, glutamine, pyruvate, penicillin and streptomycin), and transferred to 96 well plates at 500 cells per 50 μl per well. […] The supernatant culture medium containing excess MTT was removed and DMSO (100 μl) was added to solubilise the formazan, the concentration of which was measured by determining the optical density at 540 nm. […]

[2] = system: spheroidal aggregates of EMT6 murine breast cancer cells; test: Test (c): growth inhibition of spheroidal aggregates of EMT6 cells in oxygenated culture medium; assay type: cell-based; conditions: Mus musculus, 2 hours treatment, stasis of spheroid growth during 2-3 weeks, read-out: stasis ED50
Description: (c) An in vitro assay which determines the ability of a test compound to inhibit the growth in an oxygenated culture medium of spheroidal aggregates (˜400 microns in diameter) of EMT6 murine breast cancer cells. As the oxygen diffusion distance through tissue is approximately 120-150 microns, such spheroids have a chronically hypoxic central population of cells and a well oxygenated outer layer of cells. The multicellular spheroids were treated with test compounds for 2 hours as a well oxygenated suspension culture. The spheroids were subsequently washed free of test compound and selected spheroids were transferred to static culture so that the effect of treatment on volume growth could be measured. […]
EMT6 murine breast cells (obtained from P. R. Twentyman, MRC Oncology and Radiotherapeutics Unit, Cambridge, UK) were harvested from exponentially growing monolayer cultures and approximately 1×10^6 cells were used to inoculate a 500 ml spinner culture vessel containing Eagles minimal essential medium (200 ml; supplemented with 10% foetal calf serum, glutamate, non-essential amino acids, penicillin and streptomycin). […] The area of each spheroid was measured using an image analyser and the 24-well plates were transferred to a CO2 incubator at 37° C. The spheroids were then re-measured every 2-3 days for up to 21 days, with fresh culture medium (250 μl) being added to each well every 3 days. […]

[3] = system: T18 murine breast tumours; test: Test (d): in vivo growth delay of T18 tumours; design: species or system Balb/c mice; conditions: single dose of approximately 50 mg/kg intraperitoneally
Description: (d) An in vivo assay in a group of Balb/c mice which determines the ability of a test compound to delay the growth of T18 murine breast tumours. The detailed methodology was as follows:
T18 murine breast tumour tissue was routinely maintained by animal to animal passage. To prepare a batch of tumours for an experiment, tumour tissue was removed from several donor Balb/c mice and placed in saline. Outer tissue was removed and healthy looking regions of tumour were cut into approximately 1 mm pieces and implanted subcutaneously by trocar into the left flanks of anaesthetised female Balb/c mice. After 2-3 weeks, most of the implants had grown to approximately 8 mm in diameter. The animals were placed randomly into groups of 6-7, rejecting any with very large, or small, tumours. Each test compound was dissolved in DMSO and diluted with Cremophor EL followed by saline, to give a 1:1:3 mixture of DMSO, Cremophor EL and saline. Each test compound was administered by the intraperitoneal route as a single bolus dose (0.1 ml per 10 g body weight of each animal). Control animals received vehicle alone. All mice were weighed daily and the dimensions (length and width) of each tumour were measured every 2-3 days using vernier calipers. […] Growth curves were constructed and the effect of treatment was assessed using a growth delay endpoint.

With `COCCC1=C(C)C(=O)C(C)=C(C(C)(C)CC(=O)Oc2ccc(N(CCCl)CCCl)cc2)C1=O` [Example 2, 4-[bis(2-chloroethyl)amino]phenyl 3-[2-(2-methoxyethyl)-3,5-dimethyl-1,4-benzoquinonyl]-3-methylbutyrate] the IC50 [1] was 4.8 µM, the EC50 [2] was about 6 µM and the growth delay [3] was “approximately 12 days”.
